In US20250017921A1, “PHARMACEUTICAL COMBINATION AND TUMOR TREATMENT” (IDEAYA Biosciences Inc., priority 2020, published 2025):

Assays:
[1] = test system: cMET, MAPK, PI3K and PKC signaling pathways in MM28 cells; experiment: Pharmacodynamic western blot, MM28 cells; format: cell-based, human
Protocol: (§1) For all experiments, cells were seeded 24 h before treatment at 2.5×10^6 cells in 10 cm^2 tissue culture plates in 10% RPMI media. For IDE196-HGF combinations, cells were treated with the IDE196 and HGF combinations in 2% RPMI media for 2 hrs according to Table 3. For IDE196-MET inhibitor experiments, 24 h after seeding, the media was replaced with the appropriate inhibitor combinations in 2% RPMI media in the presence of 1.23-3.7 ng/ml HGF for 2 h, according to Table 4.
(§2) For all experiments, cells were washed with ice cold PBS and protein lysates were prepared by lysing cells in a RIPA buffer containing protease and phosphatase inhibitors. Protein samples (15ug/well) were separated on 4-20% Bis-Tris SDS gels and electroblotted to nitrocellulose membranes using iBlot (Invitrogen). The membranes were incubated for 1b in Superblock buffer at RT, followed by overnight incubation with primary antibody at 4° C. The primary antibodies Phospho-Met (Tyr1234/1235) (3077S), cMET (3148S), Phospho-Akt (Ser473) (4060S), Akt (pan) (2920S), Phospho-MARCKS (Ser159/163) (11992S), MARCKS (5607S), PKCδ (9616S), Phospho-p44/42 MAPK (ERK1/2) (Thr202/Tyr204) (4377S), pRAS40 were obtained from Cell Signaling. Total ERK (ab184699) and PKC delta (phospho S299) (ab133456) antibodies were from Abcam. After three washes in PBST, the membrane was incubated with HRP-conjugated secondary antibody for 1 h at RT, washed thrice in PBST, and detected using enhanced chemiluminescence (Biorad Chemidoc XRS).

MM28 cells = experiment: Cell Titer-Glo cell viability, MM28 cells; format: cell-based, human
Protocol: (§3) Luminescence was read using a plate reader (TECAN). Average luminescence of cells treated with DMSO was set to 100% and the % viable cells were calculated accordingly. Synergy/antagonism was analyzed using Combenefit software. […] Interactions between various combinations were evaluated using Bliss, HSA, and Loewe synergy/antagonism models. […] Cell viability was measured by CTG three days/five days after treatment.
(§4) After 24 hrs, the media was changed to 2% FBS/RPMI media. Further, the cell lines were screened for sensitivity to the PKC inhibitor, IDE196 alone or in combination with Hepatocyte growth factor (HGF) (Peprotech); at increasing doses according to Table 1 using a TECAN digital dispenser.

92.1 cells = experiment: Cell Titer-Glo cell viability, 92.1 cells; format: cell-based, human
Protocol: as §3, §4

[2] = test system: cMET, MAPK, PI3K and PKC signaling pathways in MEL-202 cells; experiment: Pharmacodynamic western blot, MEL-202 cells; format: cell-based, human
Protocol: as §1, §2

MEL-202 cells = experiment: Cell Titer-Glo cell viability, MEL-202 cells; format: cell-based, human
Protocol: as §3, §4

[3] = test system: cMET, MAPK, PI3K and PKC signaling pathways in 92.1 cells; experiment: Pharmacodynamic western blot, 92.1 cells; format: cell-based, human
Protocol: as §1, §2

[4] = patient; cited from earlier work
[5] = presence of HGF, IDE196 alone and in combination with crizotinib
[6] = presence of HGF, IDE196 alone, up to highest concentrations
[7] = presence of HGF, crizotinib alone or in combination with IDE196
[8] = dose-dependent, not inhibited by addition of IDE196
[9] = at or above 3.7 ng/mL HGF, all concentrations of IDE196, HSA, Loewe, Bliss

## CC1(N)CCN(c2cccnc2NC(=O)c2nc(-c3ncccc3C(F)(F)F)cnc2N)CC1 [IDE196, 3-amino-N-(3-(4-amino-4-methylpiperidin-1-yl)pyridin-2-yl)-6-(3-(trifluoromethyl)pyridin-2-yl)pyrazine-2-carboxamide]
[1]; IDE196 treatment alone
  pMARCKS and pPKC-delta: dose-dependent decrease
[1]; absence of HGF, 2 h
  dose at which pERK was inhibited: above 400 nM
[1]; presence of HGF, IDE196 alone
  effect on pAKT or pPRAS40: no effect
[1]; [5]
  pMARCKS or pPKCδ: dose-dependent decrease
[1]; [6]
  pERK inhibition: did not inhibit
MM28 cells; Homo sapiens, 120 h, IDE196 alone, day 5, N=3, read-out: inhibition of cell viability EC50
  EC50: 342 nM
92.1 cells; Homo sapiens, 72 h, IDE196 alone, day 3, N=3, read-out: inhibition of cell viability EC50
  EC50: 113 nM
[2]; IDE196 treatment alone
  pMARCKS and pPKC-delta: dose-dependent decrease
[2]; absence of HGF, 2 h
  dose at which pERK was inhibited: above 400 nM
[2]; presence of HGF, IDE196 alone
  effect on pAKT or pPRAS40: no effect
[2]; [5]
  pMARCKS or pPKCδ: dose-dependent decrease
[2]; [6]
  pERK inhibition: did not inhibit
MEL-202 cells; Homo sapiens, Mel202, 72 h, IDE196 alone, day 3, N=3, read-out: inhibition of cell viability EC50
  EC50: 250 nM
[3]; IDE196 treatment alone
  pMARCKS and pPKC-delta: dose-dependent decrease
[3]; absence of HGF, 2 h
  dose at which pERK was inhibited: above 400 nM
[3]; presence of HGF, IDE196 alone
  effect on pAKT or pPRAS40: no effect
[3]; [5]
  pMARCKS or pPKCδ: dose-dependent decrease
[3]; [6]
  pERK inhibition: did not inhibit

## CNC(=O)c1ccc(-c2cnc3ncc(Cc4ccc5ncccc5c4)n3n2)cc1F [capmatinib, reference compound]
MM28 cells; 1.23 ng/ml HGF, capmatinib, all the doses
  synergy with IDE196 on cell viability: high synergy
[4]
  half-life: about 6.5 hours
92.1 cells; 1.23 ng/ml HGF, capmatinib, any dose combination
  synergy with IDE196 on cell viability: did not synergize
MEL-202 cells; 1.23 ng/ml HGF, all doses of capmatinib, starting at 80 nM IDE196
  synergy with IDE196 on cell viability: high synergy

## C[C@@H](Oc1cc(-c2cnn(C3CCNCC3)c2)cnc1N)c1c(Cl)ccc(F)c1Cl [crizotinib, reference compound]
[1]; [7]
  HGF induced pMET, pERK, pAKT and pPRAS40 levels: strongly inhibited
[2]; [7]
  HGF induced pMET, pERK, pAKT and pPRAS40 levels: strongly inhibited
[3]; presence of HGF, higher concentrations of crizotinib alone or in combination with IDE196
  pERK, pAKT and pPRAS40: modest decrease

## HGF: Hepatocyte growth factor (Peprotech), the endogenous ligand for the extracellular cMET receptor
[1]; [8]
  pERK (MAPK signaling), pAKT and pPRAS40 (PI3K signaling) on addition of HGF: induced
MM28 cells; HGF alone
  cell viability on exposure to exogeneous HGF: increased cell viability significantly
MM28 cells; [9]
  antagonism of IDE196 induced growth inhibition by HGF: high antagonism
92.1 cells; 1.23 to 33.33 ng/ml HGF, HSA, Loewe, Bliss
  antagonism of IDE196 induced growth inhibition by HGF: modest antagonism
92.1 cells; HGF alone
  cell viability on exposure to exogeneous HGF: not
[2]; [8]
  pERK (MAPK signaling), pAKT and pPRAS40 (PI3K signaling) on addition of HGF: induced
MEL-202 cells; HGF alone
  cell viability on exposure to exogeneous HGF: increased cell viability significantly
MEL-202 cells; [9]
  antagonism of IDE196 induced growth inhibition by HGF: high antagonism
[3]; [8]
  pERK (MAPK signaling), pAKT and pPRAS40 (PI3K signaling) on addition of HGF: induced
